The experiment concerns CtOs or sPOs. In words: Wnt signaling manipulation in brain organoids (size, immunostaining, single cell RNA-Seq). It counts as cell-based, human. The method, then: Immunofluorescence staining. After being cultured in vitro for the required amount of time, CtOs and sPOs were fixed with 4% paraformaldehyde for 4-8 h at 4° C. and cryoprotected in 30% sucrose for 12 h. Organoids were then embedded in TissueTek (Leica Microsystems) and sectioned on a Leica VT1000S cryostat to produce 20 μm sections. For staining, slides were air dried for 10 min, permeabilized in […] for 2 min, and blocked with […] for 1 h at 25° C., followed by incubation with primary antibodies in the same solutions, for 16 h at 4° C. […] After further washes in 1×PBS, slides were counterstained with DAPI solution (1 μg/mL) for 45 min and mounted with ProLong Gold. All images were taken using a Zeiss fluorescence microscope equipped with Apotome (Axio Observer Apotome, Zeiss). For projections of z series stacked images of DCX-stained organoids, the maximum intensity feature of ZEN software (Zeiss) was used, after collecting 10 optical slices per section. For p16^INK4a staining, antigen retrieval was performed by incubating the slides at 60° C. for 10 min in 1× Universal HIER antigen retrieval reagent (Abcam; ab208572), followed by regular immunostaining. For counting SOX2+ cells after p16^INK4a co-staining (FIG. 15J), raw unprocessed images were used, and defined strongly stained cells as those which had average pixel intensity between the upper third quartile and the maximum pixel intensity in each image. Remaining SOX2+ cells were considered weakly stained.
For quantification of cell types in organoid sections, 4 random 100×100 μm regions of interest (ROI) were sampled across each imaged section. The mean number of labeled cells per sample was calculated by first averaging the number of labeled cells in each ROI to produce a mean value of labeled cells per section, and then averaging these mean values across all sections for each subject. […] The average percentage of pixels according to these rules was computed over four 100×100 μm ROIs per section and 6 sections per subject.
Organoid single cell RNA sequencing analysis. CtOs and sPOs were dissociated to produce a single cell suspension via a combination of mechanical dissociation with forceps and enzymatic digestion with Accutase for 10 min. For each library, a total of 15 organoids were dissociated and the resulting cells were pooled and subsequently filtered to isolate single cells for RNA sequencing analysis on the same day. Dissociated cells were pelleted (3 min, 100× g, 4° C.) and resuspended in 10 mL of Neurobasal medium. […] Single cell RNA-seq libraries were prepared using the Chromium Single Cell 3′ v3 Library kit (10× Genomics) according to the manufacturer's protocol. Approximately 20,000 cells were loaded per sample on the Chromium chip. All steps, including GEM (Gel beads in emulsion) preparation, reverse transcription, PCR amplification, and Illumina library construction were carried out on a T100 thermal cycler (Bio-Rad). cDNA extracted from GEMs was cleaned up using MyOne Silane Beads (Thermo Fisher Scientific), PCR-amplified for a total of 10 cycles, and then purified using SPRIselect Reagent Kit (B23317, Beckman Coulter). Next, the cDNA pool was enzymatically fragmented for each library and a double size selection was performed using the SPRIselect Reagent Kit. Finally, Illumina adapters were ligated to prepare libraries for sequencing, followed by another round of double size selection with the SPRIselect Reagent Kit. […] Illumina libraries were quantified using Qubit dsDNA HS Assay Kit (Thermo Fisher Scientific) and size quality control was performed on a High Sensitivity D1000 tapestation (Agilent).

Experimental findings from patent US20230372542A1, “COMPOSITION AND METHODS FOR MODULATING TCF4 GENE EXPESSION AND TREATING PITT HOPKINS SYNDROME” (The Regents of the University of California, priority 2020, published 2023) are described below.

Turning to `Cc1c[nH]c(-c2cnc(NCCNc3ccc(C#N)cn3)nc2-c2ccc(Cl)cc2Cl)n1` [CHIR99021], the “percentage of subpallial-type neural progenitors” value (CHIR99021-treated CtOs (FIG. 16H)) is “increased percentage”. Where the note is “CHIR99021-treated PTHS CtOs and sPOs (FIGS. 16G-H)”, the “progenitor population (single cell RNA-Seq)” value is recorded as “increase in the progenitor population”. In addition, the neural rosettes entry (PTHS CtOs, CHIR99021) was “reappearance of conspicuous neural rosettes”. Besides, the “NPC content (SOX2+ cells)” value (PTHS CtOs, CHIR99021 1 μM (FIG. 9K)) was “significant increase”. Moreover, the organoid size entry is listed as “significant increase in organoid size” (PTHS CtOs, CHIR99021 1 μM (FIG. 16F)) and “does not lead to an increase” (parent organoids, CHIR (FIG. 16F)). In addition, the “TCF4 levels in neural progenitors of the organoid's 3D structure” value (PTHS sPOs, CHIR (FIG. 16J)) is recorded as “do not exhibit an increase in TCF4 levels”. In addition, under “parent and PTHS CHIR99021-treated organoids (FIG. 16I)”, the “expression of subpallial markers (GAD1, GAD2)” value was “higher”. In addition, where the note is “parent organoids, CHIR (FIG. 9K)”, the progenitor content entry was “does not lead to an increase”.
